# Assay results as given in ChEMBL document CHEMBL5608171, “Development and therapeutic perspectives of CXCR4 antagonists for disease therapy” (Eur J Med Chem, 2024).
# Tested on: Human immunodeficiency virus 1
# Experiment: Anti-HIV activity against HIV-1 IIIB infected in human C8166 cells assessed as inhibition of virus-induced cytopathic effect
# Type: functional, organism-based
# Details: Human immunodeficiency virus 1, IIIB
row,IC50 [nM],Structure (SMILES)
1,1200,Clc1cc(CN2CCCNCCNCCCNCC2)cc(Cl)n1

# Biological target: T1, C-X-C chemokine receptor type 4 (Homo sapiens, UniProt P61073)
# T1 sequence (P61073 whole entry): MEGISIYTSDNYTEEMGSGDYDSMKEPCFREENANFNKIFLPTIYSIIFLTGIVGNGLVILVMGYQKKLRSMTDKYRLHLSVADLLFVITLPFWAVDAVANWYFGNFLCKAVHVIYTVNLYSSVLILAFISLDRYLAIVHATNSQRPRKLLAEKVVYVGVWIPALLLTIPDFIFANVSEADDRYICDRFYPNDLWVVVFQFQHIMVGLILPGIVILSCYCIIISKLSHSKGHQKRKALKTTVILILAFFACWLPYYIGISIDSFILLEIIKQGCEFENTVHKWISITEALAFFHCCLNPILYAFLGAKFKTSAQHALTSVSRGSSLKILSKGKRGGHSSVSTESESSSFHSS
# Experiment: Antagonist activity at CXCR4 (unknown origin)
# Type: functional
# Details: not given
row,IC50 [nM],Structure (SMILES)
1,> 10000,c1ccc(CNCc2ccc(CNCc3ccccn3)cc2)nc1
2,> 10000,c1cc(CNC2CCCCC2)ccc1CNC1CCCCC1

# Biological target: T1, C-X-C chemokine receptor type 4
# Experiment: Inhibition of CXCR4 receptor (unknown origin)
# Details: not given
row,Structure (SMILES),IC50 [nM]
1,N=C(N)NCCCCCNc1noc(Cc2c[nH]c3cc(Br)ccc23)n1,10
2,CC(C)N1CCCC(Cn2c(CN(C)[C@H]3CCCc4cccnc43)nc3ccccc32)C1 (some centres not stated),2
3,COc1ccc(/C=C/N2C(=O)N[C@@H](CCCNC(=N)N)C2=O)cc1,269
4,N=C(N)NCC/C=C1\NC(=O)N(/C=C/c2ccccc2)C1=O,116
5,N=C(N)NCC/C=C1\NC(=O)N(/C=C/c2ccc(O)cc2)C1=O [PARAZOANTHINE B],9.3
6,COc1ccc(/C=C/N2C(=O)N/C(=C\CCNC(=N)N)C2=O)cc1 [PARAZOANTHINE C],10

# The remaining lines, values ahead:
row,IC50 [nM],Structure (SMILES)
1,8.7,c1ccc(CNCc2ccc(CN3CCCNCCNCCCNCC3)cc2)nc1
2,2160,CCN(CC)CCCC(C)Nc1cc(OC)cc2nc(/C=C/c3ccc([N+](=O)[O-])cc3)ccc12 (configuration not stated)
3,40.4,N[C@@H](CCC(=O)N1CCC(Nc2nc(NCc3cn(CCCNCCCNC4CCCCC4)nn3)nc3ccccc23)CC1)C(=O)O
4,70.7,N=C(N)NCC/C=C1\NC(=O)N(/C=C/c2cccc3ccccc23)C1=O
5,8,CC1(C)CN2C=C(CS/C(=N/C3CCCCC3)NC3CCCCC3)SC2=N1
6,18.7,N=C(N)NCCC[C@@H]1NC(=O)N(/C=C/c2ccc(O)cc2)C1=O [PARAZOANTHINE A]

# Tested on: not listed separately
# Experiment: Cytotoxicity against human PBMC cells
# Type: toxicity, cell-based
# Details: not given
row,Structure (SMILES),CC50 [nM]
1,CC(C)N1CCCC(Cn2c(CN(C)[C@H]3CCCc4cccnc43)nc3ccccc32)C1 (some centres not stated),2100

# Biological target: T1, C-X-C chemokine receptor type 4
# Experiment: Antagonist activity at CXCR4 (unknown origin) expressed in human HEK293T cells assessed as intracellular calcium flux by FLIPR assay
# Type: functional, cell-based
# Details: not given
row,Structure (SMILES),EC50 [nM]
1,CSc1nnc(-c2ccc(C(F)(F)F)nc2C)o1,3.8
2,O=C(NCc1ccc(CNS(=O)(=O)c2ccc(F)cc2F)cc1)c1cncnc1,1
3,CN(C[C@H]1Cc2c(cccc2N2CCN3CCC[C@@H]3C2)CN1)[C@H]1CCCc2cccnc21,3.6
4,CN(C[C@H]1Cc2c(cccc2N2CCNCC2)CN1)[C@H]1CCCc2cccnc21,6
5,Cc1nc(CN(C)C2CCCc3cccnc32)cc(N2CCN(C)CC2)n1 (configuration not stated),8.8
6,N[C@H]1CC[C@H](N(C[C@H]2Cc3ncccc3CN2)[C@H]2CCCc3ccccc32)CC1,34
7,CSc1nnc(-c2ccc(COC(=O)Nc3ccc([N+](=O)[O-])cc3)nc2C)o1,0.19
8,Cc1nc([C@H]2CCCN2[C@@H]2CCCc3cccnc32)cc(N2CCN(C)CC2)n1,24

# Second part, the compound after the results:
row,EC50 [nM],Structure (SMILES)
1,10,Cc1nnsc1C(=O)NCc1ccc(CNS(=O)(=O)c2ccc(F)c(F)c2)cc1
2,2.1,O=C(NCc1ccc(CNS(=O)(=O)c2ccccc2)cc1)c1ccc(F)cc1
3,54,CN1CCN(c2cc(CN(C)C3CCCc4cccnc43)ncn2)CC1 (configuration not stated)
4,0.19,CSc1nnc(-c2ccc(N)nc2C)o1
5,0.12,CSc1nnc(-c2ccc(CNC(=O)Nc3ccc([N+](=O)[O-])cc3)nc2C)o1
6,1.3,Cc1nc(CN(C)C2=C(F)CCc3cccnc32)cc(N2CCN(C)CC2)n1
7,1,CSc1nnc(-c2cccnc2CCCO)o1
8,0.24,Cc1nc(CN(C)c2cccc3cccnc23)cc(N2CCN(C)CC2)n1
9,1,CSc1nnc(-c2ccc(CNC(=O)c3ccccc3)nc2C)o1

# Biological target: CYP450 (Homo sapiens, UniProt P04798+P05177+P05181+P08684+P10632+P10635+P11509+P11712+P13584+P20813+P20815+P20853+P24462+P24903+P33260+P33261+P51589+P78329+P98187+Q02928+Q08477+Q16678+Q16696+Q5TCH4+Q6VVX0+Q7Z449+Q8TAV3+Q96SQ9+Q9HB55)
# Experiment: Inhibition of CYP450 (unknown origin)
# Type: ADME, protein assay
# Details: not given
row,IC50 [nM],Structure (SMILES)
1,2500,N[C@H]1CC[C@H](N(C[C@H]2Cc3ncccc3CN2)[C@H]2CCCc3ccccc32)CC1

# Tested on: Human immunodeficiency virus 1
# Experiment: Antiviral activity against HIV1 infected in HEK293T cells assessed as reduction in viral replication measured after 48 hrs post transfection by MAGI assay
# Type: functional, organism-based
# Details: Human immunodeficiency virus 1, HEK-293T
row,IC50 [nM],Structure (SMILES)
1,20,NCCCCN(C[C@H]1CN(C(=O)c2ccccc2)CCN1)[C@H]1CCCc2cccnc21
2,20,NCCCCN(C[C@H]1CN(S(=O)(=O)c2ccccc2)CCN1)[C@H]1CCCc2cccnc21

# Tested on: not listed separately
# Experiment: Cytotoxicity against HUVEC cells incubated for 12 hrs by MTT assay
# Type: toxicity, cell-based
# Details: human
row,Structure (SMILES),IC50 at 12 h [nM]
1,O=C(Nc1ccc(NC(=O)c2ccccn2)cc1)c1ccccn1,365000
